Measured values published in patent publication US6890950B2, “Lapachone delivery systems, compositions and uses related thereto” (priority 2002, dated 2005).
Several values for one entry are separate records, joined by “and”; a condition that tells them apart may be missing. Equal entries are not always repeated. Where two headings read alike, the source gives them in different places.

Experiments:
[1] = tested on: NQO1-containing LNCaP clones; assay: colony forming ability assays; format: cell-based, human; details: 4-h pulses
Method: FIG. 14. […] Colony forming ability assays (CFAs) were performed three times, each in triplicate.
(§1) LNCaP cells were transfected with either pcDNA3 empty vector or pcDNA3 containing full-length NQO1 cDNA.

[2] = tested on: C57/blk6 mice; details: cited from earlier work
[3] = tested on: Lewis lung carcinoma (LLC); format: cell-based; details: 4 μM, 4 h
Excerpt: (§2) PARP cleavage to a 60 kDa fragment and specific p53 proteolysis are diagnostic for β-lap-induced μ-calpain-mediated apoptosis.

[4] = tested on: L1C2 cells; format: cell-based; details: 4 μM, 4 h
Excerpt: as §2

[5] = tested on: CC-10 tumor cell lines; assay: lethality and apoptosis of NSCLC cells; format: cell-based, mouse
Excerpt: as §2

[6] = tested on: LNCaP cells; assay: survival / lethality of CaP cells; format: cell-based, human; details: LNCaP (lack NQO1)
[7] = tested on: human cancer cells; details: variety of human cancer cells; read-out: antitumor activity (IC50); cited from earlier work
[8] = tested on: LNCaP; assay: TUNEL apoptosis assay; format: cell-based, human; details: for Apoptosis (%) After Drug Treatment: 10 μM, 4h
[9] = tested on: normal fresh or proliferating human PBMC; details: cited from earlier work
[10] = tested on: NQO1-expressing LNCaP clone (LN-NQ Cl 1-4, 10); assay: apoptosis in transfected LNCaP clones; format: cell-based, human; details: 10 μM β-lap
Excerpt: as §1

[11] = tested on: LNCaP vector alone clones; assay: apoptosis in transfected LNCaP clones; format: cell-based, human; details: 10 μM β-lap
Excerpt: as §1

[12] = tested on: PC-3; assay: TUNEL apoptosis assay; format: cell-based, human; details: 10 μM, 4h, TUNEL 48h
[13] = tested on: C57Blk/6 mice; assay: animal toxicity study (morbidity and mortality); format: in vivo, mouse; details: HPβ-CD inclusion complex vs Cremophor vehicle, from LD50
Method: C57Blk/6 female mice (3-4 week-old, 18-20 g) (Jackson Labs, Me.) were used to study the morbidity and mortality of mice treated with HPβ-CD.β-lap inclusion complex. Four mice per group were used for each dose, which varied from 20 to 100 mg/kg. […] Mice were injected (i.p.) every Monday, Wednesday and Friday for three weeks for a total of 10 injections. Control animals (4 mice/group) were injected with 5000 mg/kg of HPβ-CD alone to evaluate its toxicity. This HPβ-CD dose is approximately ten times of the HPβ-CD amount introduced at the highest dose of β-lap (100 mg/kg) via the HPβ-CD.β-lap inclusion complex. The higher dose of HPβ-CD was used to ensure the lack of toxicity of this compound. Weight and lethality were measured on a daily basis following initial drug administration. All animals were maintained in a facility accredited by the Association for Assessment and Accreditation of Laboratory Animal Care according to the “Principles of Laboratory Animal Care” of the National Institutes of Health.

[14] = phase solubility studies of β-lap with cyclodextrins; format: physicochemical
Method: Solubility studies were performed by adding excess amount of β-lap to a series of PBS buffer that contain different concentrations of each CD molecule ranging from zero to its solubility limit (see Table 1 for the solubility limit of each CD molecule). A schematic diagram of the intermolecular interactions and their effect on solubility is provided as FIG. 1. The suspensions were stirred at 25° C. until dissolution equilibrium was reached. […] Phase solubility diagram for each CD was obtained by plotting the β-lap solubility at dissolution equilibrium as a function of the CD concentration.

[15] = tested on: athymic nude mice; assay: maximum tolerated dose in athymic nude mice; format: in vivo, mouse
Method: MDA_MB-468 NQO1+ Tumor (468) cells were injected into the right and left flanks of 18-20 gm athymic nude mice and tumors of 20-50 mm^3 volume were allowed to grow in 20-30 days. When tumor volumes reached 20-30 mm^3 (at day 26), mice were then treated (by intraperitoneal injection) every other day with the indicated doses (in mg/kg) of β-lap (55-70 mg/kg were tested). The maximum tolerated dose of β-lap in athymic nude mice was determined to be […]). Ten (10) β-lap doses were given every other day, and data are shown for only one cycle of β-lap treatment. Multiple cycles of treatments are now being tested, as are various dose regimen and scheduling protocols.
β-lap bioavailability and antitumor activity. To show efficacy of β-lap in vivo, a systemic delivery system was developed for this water-insoluble drug. β-Lap complexes with β-hydroxypropyl-β-cyclodextrin (HP-β-CD) that dissolves the drug and makes it bioavailable. The toxicity of HP-β-CD.β-lap in 18-20 gm athymic nude mice was examined and the maximum tolerated dose (MTD) was ˜75 mg/kg. […] We tested the effects of β-lap administered i.p. in athymic nude mice bearing NQO1^+ MDA-MB-468 (468) human breast cancer xenografts.

CC1(C)CCC2=C(O1)c1ccccc1C(=O)C2=O [β-lap, β-Lapachone]
sensitivity compared to NQO1-deficient LN-pcDNA3 vector alone cells [1]: significantly more sensitive | LD50 ([2]; Cremophor as vehicle): > 150 mg/kg | LD50 ([2]; lipiodol, C57/blk6 mice): > 150 mg/kg | sensitivity to β-lap [3]: extremely sensitive | sensitivity to β-lap [4]: extremely sensitive | lethality and apoptosis [5]: caused lethality and apoptosis | sensitivity to β-lap ([5]; 4 μM, 4 h): extremely sensitive | sensitivity to β-lap [6]: resistant | IC50 [7]: 1 to 10 µM | Apoptosis (%) After Drug Treatment ([8]; LNCaP + DC (50 μM dicoumarol), TUNEL 48h): 28% | Apoptosis (%) After Drug Treatment ([8]; LNCaP + DVED, TUNEL 48h): 24% | Apoptosis (%) After Drug Treatment ([8]; LNCaP, TUNEL 48h post-treatment): 28% | less apoptosis than DU-145 or PC-3 cells ([8]; β-lap-treated LNCaP): 3 fold | cytotoxic effects [9]: No cytotoxic effects | apoptosis [10]: 80-90% | apoptosis [11]: < 5% | Apoptosis (%) After Drug Treatment ([12]; PC-3 + DC (50 μM dicoumarol)): 0.04% | Apoptosis (%) After Drug Treatment ([12]; PC-3 + DVED): 91% | Apoptosis (%) After Drug Treatment ([12]; PC-3): 82% | greater bioavailability in vivo compared to previous studies [13]: ~3 fold | increase of β-lap solubility in HPβ-CD over that in β-CD vehicle [14]: 24 fold | maximal solubility of β-lap in HPβ-CD solution ([14]; HPβ-CD solution, PBS, 25° C.): 66.0 mM and 16.0 mg/ml | water solubility of β-lap ([14]; water): 0.16 mM and 0.04 mg/ml | maximal solubility of β-lap in β-CD solution ([14]; β-CD solution, PBS, 25° C.): 2.8 mM and 0.68 mg/ml | maximum tolerated dose (MTD) ([15]; 18-20 gm athymic nude mice): 80 mg/kg | greater bioavailability in vivo than in previous studies ([15]; HP-β-CD complex MTD vs lipiodol LD50): ~3 fold
